The values that follow come from PubChem BioAssay AID1918956 (Molecular Pharmacology Branch, DTP, NCI, 2023).

Values joined by “and” are separate entries in the source; they are usually repeats but may differ in a detail not shown here. Equal values may be shown once.

This experiment has as its system OVCAR-5 complex spheroids, viability. Nature of the experiment: Anticancer human tumor OVCAR-5 cell line growth inhibition.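 As to all read-outs here: spheroids exposed to agents for seven days.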 The settings on record: for viability, T/C: stronger effect = lower value. An excerpt:
Multicellular complex tumor spheroid response to LSD1 Inhibitor Iadademstat in combination with a variety of drugs and investigational agents in selected tumor cell lines
The current study was undertaken to assess response to LSD1 inhibitors in combination with standard-of-care drugs and investigational agents in solid tumor complex spheroid models as well as in the K-562 leukemia. Complex spheroids include a stromal component modeled by human endothelial cells (HUVEC) and fibroblasts modeled by human mesenchymal stem cells (MSCs). The concentration ranges selected for each drug and investigational agent were based upon clinically achievable concentrations if the clinical Cmax of the agent was known.
Compounds. The drugs and investigational agents used in this study are listed on Table 1. All of the agents used, including staurosporine (NSC755774) and gemcitabine (NSC613327), were obtained from the Developmental Therapeutics Program, NCI. FDA-approved anticancer drugs are available from the NCI at http://dtp.nci.nih.gov/branches/dscb/oncology_drugset_explanation.html. Drugs and investigational agents were >95% pure by proton nuclear magnetic resonance (NMR) and liquid chromatography/mass spectrometry (LC/MS). Stock solutions were prepared at 400x in DMSO, stored at -70 degrees C, and diluted in fresh medium prior to their use. The final concentration of DMSO in cell culture wells never exceeded 0.25% (v/v). The FDA-approved anticancer drug set is available from the Developmental Therapeutics Program at https://dtp.cancer.gov/organization/dscb/obtaining/available_plates.htm. All drugs and investigational agents were tested over a range starting from a high concentration at or near the clinical Cmax and decreasing in half-log increments. If the clinical Cmax for an agent had not been determined, the highest concentration tested was 10 microM.
Cell Lines. The patient-derived cancer cell (PDC) lines: 292921-168-R-J2-PDC, K24384-001-R-PDC, and 521955-158-R2-J5-PDC pancreatic carcinomas, 556581-035-R-J1 ovarian carcinoma, 324938-238-R-J1-PDC, 855422-203-R-J1-PDC and 883617-216-R-J1-PDC urothelial bladder carcinomas, 743489-274-T-PDC renal cell carcinoma, 138582-R-J1 Merkel cell tumor, K60290-347-R-J1 and K57222-313-R-J1-PDC glioblastomas, 653999-131-R-J2-PDC, LG0703-F948-PDC, and 349418-098-R-PDC non-small cell lung carcinomas, 885512-296-R-J2-PDC, 171881-019-R-J1-PDC breast carcinomas and 186277-243-T-J2-PDC and 233499-124-R-J2-PDC colon carcinomas were obtained from the NCI Patient-Derived Models Repository (PDMR, https://pdmr.cancer.gov). The established cell lines NCI/ADR-RES (RRID:CVCL_14520 and OVCAR-5 (RRID:CVCL_1628) ovarian carcinomas, 786-O (RRID:CVCL_1051) and A498 […] renal cell carcinoma, NCI-H211 (ATCC, cat. CRL-5824; RRID:CVCL_1529), NCI-H196 (ATCC, cat. CRL-5823, RRID:CVCL_1509), SW 1271 (ATCC, cat. CRL-2177, RRID:CVCL_1716) and NCI-H1876 (ATCC, cat. CRL-5902, RRID:CVCL_1503) small cell lung carcinomas, MDA-MB-231 (RRID:CVCL_0062) and MDA-MB-468 (RRID:CVCL_0419)breast carcinomas (10-12). Pooled donor human umbilical vein endothelial cells (HUVEC, Lonza, cat. CC-2519) and human mesenchymal stem cells (hMSC, Lonza, cat. PT-2501) were purchased from Lonza (Walkersville, MD).
Cell Culture. All cells were maintained in an incubator at 37 degrees C and 5% CO2 with 95% humidity. The PDC lines were cultured according to standard operating procedures established by the NCI PDMR (https://pdmr.cancer.gov). Briefly all PDCs were thawed and cultured in Matrigel-coated flasks prepared with a working solution of 1X Ham's F-12 nutrient mix, without supplementation (Invitrogen, Waltham, MA, cat. 11765054), 100 U/mL penicillin-streptomycin (Invitrogen, cat. 15140122), and 2.5% Matrigel (Corning Inc., Corning, NY, cat. 354248) for the first three passages. […]

Where [1] appears, read: curve of first compound, second compound 0.1 µM.
Setting [2] is: curve of first compound, second compound 0.316 µM.
The mark [3] stands for this setting: curve of first compound, second compound 1 µM.
Where [4] appears, read: curve of first compound, second compound 3.16 µM.
Where [5] appears, read: curve of first compound, second compound 10 µM.
[6] abbreviates: second compound 0.1 µM, first compound 0.0316 µM.
The mark [7] stands for this setting: second compound 0.1 µM, first compound 0.1 µM.
Setting [8] is: second compound 0.1 µM, first compound 0.316 µM.
Setting [9] is: second compound 0.1 µM, first compound 1 µM.
[10] abbreviates: second compound 0.316 µM, first compound 0.0316 µM.
Setting [11] is: second compound 0.316 µM, first compound 0.1 µM.
The mark [12] stands for this setting: second compound 0.316 µM, first compound 0.316 µM.
Where [13] appears, read: second compound 0.316 µM, first compound 1 µM.
[14] abbreviates: second compound 1 µM, first compound 0.0316 µM.
Where [15] appears, read: second compound 1 µM, first compound 0.1 µM.
[16] abbreviates: second compound 1 µM, first compound 0.316 µM.
Where [17] appears, read: second compound 1 µM, first compound 1 µM.
[18] abbreviates: second compound 3.16 µM, first compound 0.0316 µM.
Where [19] appears, read: second compound 3.16 µM, first compound 0.1 µM.
Where [20] appears, read: second compound 3.16 µM, first compound 0.316 µM.
Where [21] appears, read: second compound 3.16 µM, first compound 1 µM.
Setting [22] is: second compound 10 µM, first compound 0.0316 µM.
Where [23] appears, read: second compound 10 µM, first compound 0.1 µM.
Where [24] appears, read: second compound 10 µM, first compound 0.316 µM.
[25] abbreviates: second compound 10 µM, first compound 1 µM.

The term IC50 denotes the concentration that gives 50% inhibition. As a reminder, the viability, T/C is the ratio of treated to control. Regarding `CC(C)c1c(-c2ccccc2)nc2c(C#N)c[nH]n2c1=O` + NC1CC1c1ccc(-c2cccc(O)c2)cc1, the half-maximal inhibitory concentration (IC50) runs as follows: under setting [1], greater than 10000 nM; under setting [2], greater than 10000 nM; under setting [3], greater than 10000 nM; under setting [4], greater than 10000 nM; under setting [5], greater than 10000 nM. Moreover, the viability, T/C runs as follows: under setting [6], 92.2%; under setting [7], 98.4%; under setting [8], 97.4%; under setting [9], 98.4%; (second compound 0.1 µM, first compound 3.16 µM) 99.9%; (second compound 0.1 µM, first compound 10 µM) 107%. The viability, T/C under setting [10] is 98%; the viability, T/C under setting [11] is 96%; the viability, T/C under setting [12] was 102%; the viability, T/C under setting [13] was 102%; the viability, T/C (second compound 0.316 µM, first compound 3.16 µM) is 98%; the viability, T/C (second compound 0.316 µM, first compound 10 µM) was 108%. Moreover, the viability, T/C by setting is: under setting [14], 87%; under setting [15], 90%; under setting [16], 97.1%; under setting [17], 105%; (second compound 1 µM, first compound 3.16 µM) 96.1%; (second compound 1 µM, first compound 10 µM) 104%. The viability, T/C was 88.3% under setting [18]; 95.4% under setting [19]; 77.8% under setting [20]; 95.6% under setting [21]; 88.8% (second compound 3.16 µM, first compound 3.16 µM); 98.9% (second compound 3.16 µM, first compound 10 µM). In addition, the viability, T/C by setting is: under setting [22], 82.2%; under setting [23], 91%; under setting [24], 80.5%; under setting [25], 87.5%; (second compound 10 µM, first compound 3.16 µM) 87.7%; (second compound 10 µM, first compound 10 µM) 73.5%.

Regarding `CCc1c2c(nc3ccc(O)cc13)-c1cc3c(c(=O)n1C2)COC(=O)[C@]3(O)CC`, the viability, T/C reads like this: (compound 0.000949 µM) 39.2% and 30.3%; (compound 0.003 µM) 21.2% and 19.1%; (compound 0.00949 µM) 8.48% and 7.2%; (compound 0.03 µM) 3.26% and 2.51%; (compound 0.0949 µM) 1.15% and 0.63%; (compound 0.3 µM) 0.68% and 0.54%. Further, the 50% inhibitory concentration (IC50) (curve of compound) was less than 0.949 nM.

Regarding `Cn1ncnc1C1c2n[nH]c(=O)c3cc(F)cc(c23)NC1c1ccc(F)cc1` (centres undefined), the viability, T/C (compound 0.000316 µM) was 96.3% and 102%; the viability, T/C (compound 0.001 µM) is 91.2% and 102%; the viability, T/C (compound 0.00316 µM) was 89% and 98.7%; the viability, T/C (compound 0.01 µM) is 93.4% and 95.9%; the viability, T/C (compound 0.0316 µM) is 90.2% and 86%; the viability, T/C (compound 0.1 µM) was 99.8% and 93.8%. In addition, the IC50 (curve of compound) is greater than 100 nM.

On to `Nc1ncn(C2CC(O)C(CO)O2)c(=O)n1` (centres undefined) + NC1CC1c1ccc(-c2cccc(O)c2)cc1, for which the half-maximal inhibitory concentration (IC50) is, setting by setting: under setting [1], greater than 1000 nM; under setting [2], greater than 1000 nM; under setting [3], greater than 1000 nM; under setting [4], greater than 1000 nM; under setting [5], greater than 1000 nM. For the same molecule, the viability, T/C was 103% (second compound 0.1 µM, first compound 0.00316 µM); 98.5% (second compound 0.1 µM, first compound 0.01 µM); 83.4% under setting [6]; 74.2% under setting [7]; 68.2% under setting [8]; 65.8% under setting [9]. The viability, T/C is, setting by setting: (second compound 0.316 µM, first compound 0.00316 µM) 93.6%; (second compound 0.316 µM, first compound 0.01 µM) 98.5%; under setting [10], 87.4%; under setting [11], 70.5%; under setting [12], 70.2%; under setting [13], 66.2%. Also, the viability, T/C is 94.9% (second compound 1 µM, first compound 0.00316 µM); 99.6% (second compound 1 µM, first compound 0.01 µM); 87.6% under setting [14]; 66.1% under setting [15]; 67.8% under setting [16]; 66.7% under setting [17]. The viability, T/C reads like this: (second compound 3.16 µM, first compound 0.00316 µM) 89%; (second compound 3.16 µM, first compound 0.01 µM) 85.9%; under setting [18], 70.3%; under setting [19], 72%; under setting [20], 61.1%; under setting [21], 64.5%. In addition, the viability, T/C is 83% (second compound 10 µM, first compound 0.00316 µM); 80.1% (second compound 10 µM, first compound 0.01 µM); 72% under setting [22]; 60.3% under setting [23]; 58% under setting [24]; 61.2% under setting [25].
